Biological target: Rab7 GTPase wildtype (dog), GST fusion
Experiment: Rab7 wildtype GTP binding inhibitors, SAR follow-up, biochemical, dog Rab7, bead multiplex flow cytometry, Bodipy-FL-GTP, pyrazoline series (AID 2041)
Conditions: Bead-based flow cytometry, Ki calculated from EC50

Compound	Ki [µM]
COc1ccccc1N1N=C(c2ccccc2)CC1c1ccccc1 (stereo not drawn)	0.66
Clc1ccc(N2N=C(c3ccccc3)CC2c2ccccc2)cc1 (stereo not drawn)	0.43
O=S(=O)(c1ccc(N2N=C(c3ccccc3)CC2c2ccccc2)cc1)C(F)F (stereo not drawn)	0.03
COc1ccc(C2CC(c3cccc(Cl)c3)=NN2c2ccc(S(N)(=O)=O)cc2)cc1 (stereo not drawn)	0.01

The next lines start with the values.

Ki [µM]	Compound
0.01	COc1ccc(C2=NN(c3cccc(F)c3)C(c3ccc(OC)cc3)C2)cc1 (stereo not drawn)
1.47	COc1ccc(C2CC(c3ccc(F)cc3)=NN2c2cccc(F)c2)cc1OC (stereo not drawn)
0.73	COc1ccc(C2CC(c3ccc(F)cc3)=NN2c2cc(Cl)ccc2Cl)cc1 (stereo not drawn)
0.04	COc1ccc(C2=NN(c3ccccc3)C(c3ccc(Cl)cc3)C2)cc1 (stereo not drawn)

Source: PubChem BioAssay AID2041 (NMMLSC, 2009)
